Here are results for four compounds from US6172110A, “Acylated betulin and dihydrobetulin derivatives, preparation thereof and use thereof” (The University of North Carolina at Chapel Hill, priority 1999, dated 2001).

Where two headings read alike, the source gives them in different places.

One data set relates to HIV-1 (IIIB isolate). The experiment in a line: HIV-1 inhibition (p24 antigen ELISA) in infected H9 lymphocytes. In kind it is cell-based. Conditions: for EC50: Human immunodeficiency virus 1, IIIB, Lymphocyte, 96 h, read-out: Anti-HIV Activity EC50. On the procedure:
(§1) Aliquot of this cell line were only used in experiments when in log-phase growth. Test samples were first dissolved in dimethyl sulfoxide. The following final drug concentrations were routinely used for screening: 100, 20, 4 and 0.8 μg/ml. For active agents, additional dilutions were prepared for subsequent testing so that an accurate EC50 value (defined below) could be achieved. […] The appropriate amount of virus for a multiplicity of infection (moi) between 0.1 and 0.01 Infectious Units/cell was added to the first aliquot of H9 cells. The other aliquot only received culture medium, and these mock-infected cells were used for toxicity determinations (IC50, defined below). After a 4 h incubation at 37° C. and 5% CO2, both cell populations were washed three times with fresh medium and then added to the appropriate wells of a 24 well-plate containing the various concentrations of the test drug or culture medium (positive infected control/negative drug control). In addition, AZT was also assayed during each experiment as a positive drug control. The plates were incubated at 37° C. and 5% CO2 for 4 days. Cell-free supernatants were collected on Day 4 for use in a p24 antigen ELISA assay. P24 antigen is a core protein of HIV and therefore is an indirect measure of virus present in the supernatants. Toxicity was determined by performing cell counts by a Coulter Counter on the mock-infected H9 cells which had either received culture medium (no toxicity), test sample, or AZT.
Compounds of the present invention were assayed for anti-HIV activity according to the following assay procedures. […] The cell lines were used in experiments only when in the logarithmic phase of growth, whereas uninfected peripheral blood mononuclear cells (PBMCs) were first stimulated with PHA (1 μg/mL) for three days. […] The cell lines and PBMCs were washed thoroughly to remove unadsorbed virions and resuspended at 4×10^5 cells/ml in complete medium or complete medium with 10% v/v interleukin 2 (IL-2) , respectively. One ml. aliquots were placed into wells of 24-well culture plates containing an equal volume of test compounds (diluted in the appropriate culture medium). The toxicity of each compound was assessed by determining the number of compound-exposed uninfected cells that remained after four days at 37° C. and 5% CO2. A p24 antigen ELISA assay was used to determine the level of virus released in the medium of the HIV-infected cultures. The p24 antigen assay used a HIV-1 anti-p24 specific monoclonal antibody as the capture antibody coated onto 96-well plates. […] P24 in the culture medium was quantitated against a standard curve containing known amounts of p24. The effective (EC50) and inhibitory (IC50) concentrations for anti-HIV activity and cytotoxicity, respectively, were determined.
For orientation: An ELISA detects its analyte on a solid surface through an enzyme-linked reagent.

Data set [1] is described as follows: Cytotoxicity: cell counts of mock-infected H9 cells. In kind it is cell-based. Conditions: human. The method, then: as §1, with “The biological evaluation of HIV-1 inhibition was carried out according to established protocols, (Kashiwada, Y., et al., J Med Chem. 39:1016-1017 (1996); Hashimoto, F., et al., Bioorg. & Med Chem. 5:2133-2143 (1997)). The T cell line, H9, was maintained in continuous culture with complete medium (RPMI 1640 with 10% fetal calf serum supplemented with L-glutamine at 5% CO2 and 37° C.). Aliquot” for “Aliquot”, “achieved. As the test samples were being prepared, an aliquot of the H9 cell line was infected with HIV-1 (IIIB isolate) while another aliquot was mock-infected with complete medium.” for “achieved.”
Compounds of the present invention were assayed for anti-HIV activity according to the following assay procedures. The T cell line, H9, and the promonocytic cell line, U937, were maintained separately in continuous culture with complete medium (RPMI 1640 with 10% fetal calf serum) at 5% CO2 and 37° C. The cell lines were used in experiments only when in the logarithmic phase of growth, whereas uninfected peripheral blood mononuclear cells (PBMCs) were first stimulated with PHA (1 μg/mL) for three days. All cell targets were incubated with HIV-1 (IIIB isolate, TCID50 10^4 IU/ml, at a multiplicity of infection of […] IU/cell) for one hour at 37° C. and 5% CO2. The cell lines and PBMCs were washed thoroughly to remove unadsorbed virions and resuspended at 4×10^5 cells/ml in complete medium or complete medium with 10% v/v interleukin 2 (IL-2) , respectively. One ml. aliquots were placed into wells of 24-well culture plates containing an equal volume of test compounds (diluted in the appropriate culture medium). The toxicity of each compound was assessed by determining the number of compound-exposed uninfected cells that remained after four days at 37° C. and 5% CO2. A p24 antigen ELISA assay was used to determine the level of virus released in the medium of the HIV-infected cultures. The p24 antigen assay used a HIV-1 anti-p24 specific monoclonal antibody as the capture antibody coated onto 96-well plates. Following a sample incubation period, rabbit serum containing antibodies for HIV-1 p24 was used to tag any p24 captured onto the microtiterwell surface. Peroxidase conjugated goat anti-rabbit serum was then used to tag HIV-1 p24 specific rabbit antibodies that had complexed with captured p24. […] The cutoff for the p24 ELISA assay was 12.5 pg/ml. P24 in the culture medium was quantitated against a standard curve containing known amounts of p24. […]

Another data set concerns HIV-1. Conditions: H9 lymphocyte cells, Fujioka et al. 1994, cited from earlier work.
Where [2] appears, read: read-out: EC50, inhibitory activity against HIV-1 replication.

As for `C=C(C)[C@@H]1CC[C@]2(C(=O)O)CC[C@]3(C)[C@H](CC[C@@H]4[C@@]5(C)CC[C@H](O)C(C)(C)[C@@H]5CC[C@]43C)[C@@H]12` [Compound 1, betulinic acid, reference compound], the EC50 was 1.4 µM in the data set on HIV-1 (IIIB isolate) (H9 lymphocytes, p24 ELISA Day 4, average of at least two experiments) and 1.4 µM in the data set with HIV-1 (setting [2]). Moreover, in data set [1] (toxic to 50% of mock-infected H9 cells, 4 days, average of at least two experiments, read-out: Cytotoxicity IC50), the CC50 at 96 h worked out at 13 µM.
`C=C(C)[C@@H]1CC[C@]2(COC(=O)CC(C)(C)CC(=O)O)CC[C@]3(C)[C@H](CC[C@@H]4[C@@]5(C)CC=CC(C)(C)[C@@H]5CC[C@]43C)[C@@H]12` [Compound 14]: the “Therapeutic Index (TI = IC50/EC50)” value in the data set with HIV-1 (IIIB isolate) (H9 cells, average of at least two experiments) came out at 5.2. The “anti-HIV activity, result in words” value in the data set on HIV-1 (IIIB isolate) (H-9 lymphocytes, EC50 compared with related compounds) was “increased anti-HIV activity”. The concentration giving a half-maximal response (EC50) with HIV-1 (IIIB isolate) was 5.4 µM. Moreover, the CC50 at 96 h in data set [1] (h9 cells) came to 28.3 µM.
Turning to `CC(C)[C@@H]1CC[C@]2(C(=O)O)CC[C@]3(C)[C@H](CC[C@@H]4[C@@]5(C)CC[C@H](O)C(C)(C)[C@@H]5CC[C@]43C)[C@@H]12` [dihydrobetulinic acid], the T.I. in the data set on HIV-1 was 14. In addition, the concentration giving a half-maximal response (EC50) in the data set with HIV-1 (read-out: EC50, anti-HIV activity (unit inferred)) is 0.9 µM.
Take `CC(=O)[C@@H]1CC[C@]2(C(=O)O)CC[C@]3(C)[C@H](CC[C@@H]4[C@@]5(C)CC[C@H](O)C(C)(C)[C@@H]5CC[C@]43C)[C@@H]12` [platanic acid]: the T.I. in the data set with HIV-1 was 14. Also, the concentration for a half-maximal effect (EC50) in the data set on HIV-1 (setting [2]) was 6.5 µM.

One may read the EC50 as the concentration giving half of the maximal effect.
